Key:
[1] = molecular target: T1, TPKC1 (Homo sapiens, UniProt O95069, D309R/L311V/L365I/T411A/W310L); test: Growth of TPKC1-containing CY162 cells on low potassium media; format: cell-based; design: The TPKC1 ORF was amplified by PCR with 5′ primer; expressed in transfected cells; details: low (2-3 mM KCl) potassium media
T1 sequence (O95069 1-426 D309R/W310L/L311V/L365I/T411A): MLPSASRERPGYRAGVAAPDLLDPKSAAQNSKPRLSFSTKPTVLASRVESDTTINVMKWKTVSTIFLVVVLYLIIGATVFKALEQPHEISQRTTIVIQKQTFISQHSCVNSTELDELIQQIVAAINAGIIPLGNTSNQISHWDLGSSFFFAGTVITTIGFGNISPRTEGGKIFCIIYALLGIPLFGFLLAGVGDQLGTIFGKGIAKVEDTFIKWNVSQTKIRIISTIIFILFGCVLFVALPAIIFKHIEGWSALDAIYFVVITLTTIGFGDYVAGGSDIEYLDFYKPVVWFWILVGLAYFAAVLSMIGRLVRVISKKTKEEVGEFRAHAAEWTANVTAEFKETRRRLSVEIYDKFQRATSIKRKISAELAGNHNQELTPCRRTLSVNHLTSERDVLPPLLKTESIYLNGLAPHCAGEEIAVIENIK
Excerpt: The TPKC1 ORF was amplified using oligos that added restriction endonuclease cleavage sites appropriate for insertion into the yeast expression vectors pLP100 and pYES2 (Invitrogen). The corresponding TPKC1 expression plasmids, pLP155 and pLP156, were constructed using standard molecular biological methodology and used to transform S. cerevisiae CY162 cells using the lithium acetate method. The resulting yeast strains were examined for their ability to grow on standard synthetic agar media containing a low concentration of KCl. Expression of TPKC1 in CY162 cells supports their growth on low (2-3 mM KCl) potassium media. […] The growth of TPKC1-containing CY162 cells was inhibited by the known potassium channel blockers Ba^2+, Ca^2+, Cs^+, and quinine, but not by TEA. The oligos used for the cloning of 5′ and 3′ RACE fragments were used in this analysis as well.
LY890 (MAT trk1:: LYS2 trk2::TRP1 ura3-52 lys2-801, ade2-101, trp1-Δ63, his3-Δ200, leu2-Δ1) was constructed by deletion of the TRK1 and TRK2 genes from the parent yeast strain YPH500 (Stratagene). The full length TPKC1 ORF fragment was generated by PCR; 5′ primer (5′-AAAAGATCTAAAATGCTTCCCAGCGCC-3′), 3′ primer (AAAGTCGACCTATTTGATGTTCTCAAT-3′) and inserted into the yeast expression vector pLP100 [18] to yield pLP155. pLP155 was used to transform S. cerevisiae LY890 cells using standard methods. CY162 was constructed as described in J. A. Anderson et al., Proc. Natl. Acad. Sci. USA 89, 3736-3740 (1992). Yeast cells (10^5) containing the indicated plasmids were plated in RPD (arginine phosphate glucose) low potassium (2 mM) agar media and compounds applied to the surface of the agar.

[2] = molecular target: T1, TPKC1; test: TPCK1-induced currents in X. laevis oocytes, two-electrode voltage clamp; format: cell-based; design: The TPKC1 ORF was amplified by PCR with 5′ primer; expressed in transfected cells; host or cells: Xenopus laevis oocytes injected with cRNA transcribed from pLP163; details: for block of TPKC1 current: relative to Ba2+ (50% at 1 mM), data not shown
Excerpt: The expression vector pLP160 was generated by inserting a poly (A)n tract (n=30) followed by a BglII site between the Not1 and XbaI sites of pBluescript SK (+/−) (Stratagene). The final vector contains a deletion from the poly(A) tract through the BamH1 site. The TPKC1 ORF was amplified by PCR with 5′ primer (5′-AAAAAGCTTGCCACCATGCTTCCCAGCGCC-3′) and 3′ primer (5′-CTA TTT GAT GTT CTC-3′), digested with the HindIII and inserted into the vector pLP160 digested with HindIII and SmaI to give pLP163. This construct was linearized with BglII for in vitro cRNA transcription with T7 RNA polymerase (Ambion). The cRNA was quantified by gel electrophoresis using RNA standards (Gibco BRL). One ng of TPKC1 cRNA (23 nl of 40 ng/μl solution) was microinjected into defolliculated oocytes from Xenopus laevis. Oocytes were incubated at 17° C. with gentle shaking in ND96 medium. Whole cell electrophysiological recordings were taken 1-3 days post-injection at room temperature in a constantly-perfusing bath using a two-electrode voltage clamp protocol of 300 ms pulses from −150 to +60 mV from a holding potential of −90 mV. The interval between pulses was one second. Electrodes (3 MΩ current injection, 30 MΩ voltage recording) contained 4 M potassium acetate.

[3] = molecular target: T2, KAT1 (Arabidopsis thaliana, UniProt Q39128); test: Yeast agar plate bioassay, KAT-dependent growth of CY162; format: cell-based, plant; details: CY162 yeast bearing pKAT1; filter disk with 20 μl of 1 M solution; arginine phosphate agar, 0.2 mM KCl
T2 construct: expressed in transfected cells; host or cells: Saccharomyces cerevisiae CY162 carrying pKAT1
T2 sequence (Q39128 whole entry): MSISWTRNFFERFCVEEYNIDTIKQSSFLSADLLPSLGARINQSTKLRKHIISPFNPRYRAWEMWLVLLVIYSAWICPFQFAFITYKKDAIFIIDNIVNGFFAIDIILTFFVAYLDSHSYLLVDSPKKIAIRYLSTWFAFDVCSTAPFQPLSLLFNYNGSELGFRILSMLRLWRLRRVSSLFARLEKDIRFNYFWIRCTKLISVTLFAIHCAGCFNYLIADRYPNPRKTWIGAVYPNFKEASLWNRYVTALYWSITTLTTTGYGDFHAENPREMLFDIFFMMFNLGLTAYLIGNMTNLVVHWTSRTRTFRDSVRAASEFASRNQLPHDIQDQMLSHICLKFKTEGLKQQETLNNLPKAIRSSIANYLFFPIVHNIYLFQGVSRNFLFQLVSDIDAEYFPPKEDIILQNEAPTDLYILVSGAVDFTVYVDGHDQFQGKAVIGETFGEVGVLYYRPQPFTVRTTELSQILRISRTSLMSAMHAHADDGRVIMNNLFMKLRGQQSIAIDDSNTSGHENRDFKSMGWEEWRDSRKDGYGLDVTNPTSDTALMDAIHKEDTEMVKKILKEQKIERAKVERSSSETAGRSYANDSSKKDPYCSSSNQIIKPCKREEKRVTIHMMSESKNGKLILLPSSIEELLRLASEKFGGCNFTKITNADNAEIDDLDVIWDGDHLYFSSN
Experimental: (§1) FIG. 8. Inhibition of growth of yeast cells containing heterologous potassium channels. CY162 cells (10^5) bearing the indicated plasmids are plated in arginine phosphate agar medium containing 0.2 mM potassium chloride. Sterile filter disks were placed on the surface of the agar and saturated with 20 μl of a 1 M solution of potassium channel blocking compound. Clockwise from upper left-hand comer is BaCl2, CsCl, TEA, and RbCl. KCl is applied to the center disk.
(§2) Yeast strains dependent on heterologous potassium channels for growth should be sensitive to non-specific potassium channel blocking compounds. To test the potassium channel blocking properties of several compounds, a convenient agar plate bioassay is employed. Strains containing pKAT1, pRATRAK, pDmORF1, and pYES2 are plated in arginine-phosphate-dextrose agar medium lacking ura and containing various amounts of potassium chloride. Arginine-phosphate-dextrose medium is used to avoid interference from potassium and ammonium ions present in standard synthetic yeast culture medium. Sterile filter disks were placed on the surface of the agar and saturated with potassium channel blocking ions CsCl, BaCl2, and TEA. The growth of heterologous potassium channel containing strains is inhibited by potassium channel blocking ions, in a channel dependent manner. DmORF1-dependent growth is blocked by BaCl2 but not by CsCl or TEA. KAT-dependent growth is blocked by BaCl2, CsCl and TEA. RATRAK-dependent growth is blocked by BaCl2, CsCl and TEA to a much greater extent than pKAT1, reflecting in part a slower growth rate of pRATRAK-containing cells.

[4] = molecular target: T3, RATRAK (Rattus norvegicus, UniProt P63142); test: Yeast agar plate bioassay, RATRAK-dependent growth of CY162; format: cell-based; details: CY162 yeast bearing pRATRAK; filter disk with 20 μl of 1 M solution; blocked to a much greater extent than pKAT1
T3 construct: expressed in transfected cells; host or cells: Saccharomyces cerevisiae CY162 carrying pRATRAK
T3 sequence (P63142 whole entry): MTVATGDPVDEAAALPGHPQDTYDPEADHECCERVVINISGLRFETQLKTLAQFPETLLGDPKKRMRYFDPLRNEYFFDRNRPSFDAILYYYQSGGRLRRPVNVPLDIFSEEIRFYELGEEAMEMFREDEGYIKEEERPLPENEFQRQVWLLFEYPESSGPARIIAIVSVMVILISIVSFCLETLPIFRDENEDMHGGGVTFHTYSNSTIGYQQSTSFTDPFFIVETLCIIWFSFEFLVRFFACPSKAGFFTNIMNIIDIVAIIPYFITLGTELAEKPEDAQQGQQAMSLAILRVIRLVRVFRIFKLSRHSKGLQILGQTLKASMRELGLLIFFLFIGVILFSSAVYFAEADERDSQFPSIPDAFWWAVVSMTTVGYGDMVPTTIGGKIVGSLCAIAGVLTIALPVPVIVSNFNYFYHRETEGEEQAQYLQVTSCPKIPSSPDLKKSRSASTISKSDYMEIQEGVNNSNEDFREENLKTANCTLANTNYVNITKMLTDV
Experimental: as §1, §2

[5] = molecular target: T4, DmORF1 (Drosophila melanogaster, UniProt Q94526); test: Yeast agar plate bioassay, DmORF1-dependent growth of CY162; format: cell-based; design: A single long open reading frame sufficient to encode a protein of 618 amino acids (predicted MW 68 kDa) is encoded in pDmORF1; expressed in transfected cells; host or cells: Saccharomyces cerevisiae CY162 (trk1 trk2) carrying pDmORF1 (pYES2 library plasmid); details: CY162 yeast bearing pDmORF1; filter disk with 20 μl of 1 M solution; arginine phosphate agar, 0.2 mM KCl
T4 sequence (Q94526 other isoform, or with tags, fused parts or gaps with the stated changes): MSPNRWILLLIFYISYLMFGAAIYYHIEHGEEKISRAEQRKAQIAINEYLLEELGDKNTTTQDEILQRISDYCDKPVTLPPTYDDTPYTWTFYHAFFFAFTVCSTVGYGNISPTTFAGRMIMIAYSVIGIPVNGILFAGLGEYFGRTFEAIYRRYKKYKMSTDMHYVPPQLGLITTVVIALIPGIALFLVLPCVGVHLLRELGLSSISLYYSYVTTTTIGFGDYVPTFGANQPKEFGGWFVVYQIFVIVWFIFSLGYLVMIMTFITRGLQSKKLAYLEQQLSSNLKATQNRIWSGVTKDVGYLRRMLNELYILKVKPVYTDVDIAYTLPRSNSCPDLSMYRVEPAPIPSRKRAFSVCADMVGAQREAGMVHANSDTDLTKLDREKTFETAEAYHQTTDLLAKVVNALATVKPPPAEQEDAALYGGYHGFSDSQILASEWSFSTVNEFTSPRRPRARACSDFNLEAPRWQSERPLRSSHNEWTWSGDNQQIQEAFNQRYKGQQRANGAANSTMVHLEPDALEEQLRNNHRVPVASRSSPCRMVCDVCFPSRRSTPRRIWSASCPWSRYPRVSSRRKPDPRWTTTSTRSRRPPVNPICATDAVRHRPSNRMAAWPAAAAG
Experimental: as §1, §2

[6] = system: CY162 cells; test: Yeast agar plate bioassay, control pYES2-containing CY162 strain; format: cell-based, Saccharomyces cerevisiae; details: CY162 bearing pYES2; low potassium agar; compound on filter disk
Experimental: as §1
as §2, with “KAT-dependent growth is blocked by BaCl2, CsCl and TEA. RATRAK-dependent growth is blocked by BaCl2, CsCl and TEA to a much greater extent than pKAT1, reflecting in part a slower growth rate of pRATRAK-containing cells.” left out

[7] = molecular target: T4, DmORF1; test: DmORF1-induced currents in X. laevis oocytes, two-electrode voltage clamp; format: cell-based; design: A single long open reading frame sufficient to encode a protein of 618 amino acids (predicted MW 68 kDa) is encoded in pDmORF1; expressed in transfected cells; details: two-electrode whole-cell voltage clamp
Experimental: To test this hypothesis, the electrophysiological properties of the putative potassium channel encoded by DmORF1 was examined by expression in X. laevis oocytes. Currents were measured by two-electrode whole-cell voltage clamp. DNA sequences encoding the open reading frame of DmORF1 were amplified by polymerase chain reaction (PCR) using the following oligonucleotides:
The full length PCR product was cloned into corresponding sites in pSP64 poly A (Promega), forming pMP147. Template DNA was linearized with EcoRI and RNA transcribed using the Message Machine (Ambion) in vitro transcription kit according to manufacturers instructions. A sample of the RNA was resolved in a MOPS-acetate-formaldehyde agarose gel and RNA content was estimated by ethidium bromide staining. The remainder was stored on dry ice. X. laevis oocytes were isolated and injected with 50 nl of sterile TE containing 5-20 ng transcript according to published procedures. After three days, whole oocyte currents were recorded using a two-electrode voltage clamp. Electrodes contained 3M KCl and had resistances of 0.3-1.0 MW. Recordings were performed faith constant perfusion at room temperature in the presence of either low (10 mM) or high (90 mM) potassium chloride.

[8] = molecular target: T4, DmORF1; test: 86Rb uptake into CY162 cells containing DmORF1; format: cell-based; design: A single long open reading frame sufficient to encode a protein of 618 amino acids (predicted MW 68 kDa) is encoded in pDmORF1; expressed in transfected cells; host or cells: Saccharomyces cerevisiae CY162 (trk1 trk2) carrying pDmORF1 (pYES2 library plasmid); details: CY162-DmORF1 yeast cells, Ca-MES buffer, room temperature
Experimental: Expression of DmORF permits CY162 cells to grow on medium containing a low concentration of potassium, implying that DmORF1 supplies high affinity potassium uptake capacity. To characterize the potassium uptake properties of CY162 cells containing DmORF1, ^86Rb uptake studies were performed.
Yeast strains containing heterologous potassium-expression plasmids CY162-DmORF1, CY162-pKAT and the control strain CY162-pYES2 (Clontech) were cultured overnight in SC Gal-ura containing 0.1 M KCl. The cells were harvested, washed with sterile doubled distilled water and starved for K^+ for 6 hours in Ca-MES buffer. Cells were washed again and distributed to culture tubes (10^8 cells/tube) containing ^86RbCl in Ca-MES buffer.

Row | SMILES | inhibition of growth of TPKC1-containing CY162 cells [1] | block of TPKC1 current [2] | block of KAT-dependent growth [3] | block of RATRAK-dependent growth [4] | block of DmORF1-dependent growth [5] | also measured
1 | [Ca+2] [Ca^2+] | inhibited | block to a lesser degree | – | – | – | –
2 | [Cl-].[Cs+] [CsCl] | inhibited | failed to block | blocked | blocked | not | –
3 | [Cl-].[K+] [KCl] | – | – | – | – | – | growth of control pYES-containing strain around applied compound [6]: grows only around applied
4 | [Cl-].[Rb+] [RbCl] | – | – | – | – | – | growth of control pYES-containing strain around applied compound [6]: grows only around applied
5 | Nc1ccncc1 [4-AP] | – | block to a lesser degree | – | – | – | –
6 | C=C[C@H]1C[N@@]2CC[C@H]1C[C@H]2[C@H](O)c1ccnc2ccc(OC)cc12 [quinine] | inhibited | block to a lesser degree | – | – | – | –
7 | [Ba+2].[Cl-].[Cl-] [BaCl2] | inhibited | – | blocked | blocked | blocked | attenuation of DmORF1 potassium currents [7]: greatly attenuated; inhibition of TPKC1 current ([2]; applied at 1 mM, FIG. 11D): 50%; inhibition of 86Rb uptake [8]: inhibited
8 | CC[N+](CC)(CC)CC [TEA] | not | failed to block | blocked | blocked | not | –

From patent US20050032165A1, “Potassium channels, nucleotide sequences encoding them, and methods of using same” (BASF AKTIENGESELLSCHAFT, priority 1994, published 2005)
